Laboratory results published in patent US20100317863A1, “Glucocorticoid Mimetics, Methods of Making Them, Pharmaceutical Compositions and Uses Thereof” (BOEHRINGER INGELHEIM INTERNATIONAL GMBH, priority 2007, published 2010).

biological target: T1, human glucocorticoid receptor (GR) complex (Homo sapiens, UniProt P04150); experiment: Glucocorticoid Receptor Competitive Binding Assay (fluorescence polarization); details: competition with TAMRA-labeled dexamethasone; potent activity
T1 construct: made in house; host or cells: insect expression system (baculovirus lysate)
T1 sequence (P04150 1-777): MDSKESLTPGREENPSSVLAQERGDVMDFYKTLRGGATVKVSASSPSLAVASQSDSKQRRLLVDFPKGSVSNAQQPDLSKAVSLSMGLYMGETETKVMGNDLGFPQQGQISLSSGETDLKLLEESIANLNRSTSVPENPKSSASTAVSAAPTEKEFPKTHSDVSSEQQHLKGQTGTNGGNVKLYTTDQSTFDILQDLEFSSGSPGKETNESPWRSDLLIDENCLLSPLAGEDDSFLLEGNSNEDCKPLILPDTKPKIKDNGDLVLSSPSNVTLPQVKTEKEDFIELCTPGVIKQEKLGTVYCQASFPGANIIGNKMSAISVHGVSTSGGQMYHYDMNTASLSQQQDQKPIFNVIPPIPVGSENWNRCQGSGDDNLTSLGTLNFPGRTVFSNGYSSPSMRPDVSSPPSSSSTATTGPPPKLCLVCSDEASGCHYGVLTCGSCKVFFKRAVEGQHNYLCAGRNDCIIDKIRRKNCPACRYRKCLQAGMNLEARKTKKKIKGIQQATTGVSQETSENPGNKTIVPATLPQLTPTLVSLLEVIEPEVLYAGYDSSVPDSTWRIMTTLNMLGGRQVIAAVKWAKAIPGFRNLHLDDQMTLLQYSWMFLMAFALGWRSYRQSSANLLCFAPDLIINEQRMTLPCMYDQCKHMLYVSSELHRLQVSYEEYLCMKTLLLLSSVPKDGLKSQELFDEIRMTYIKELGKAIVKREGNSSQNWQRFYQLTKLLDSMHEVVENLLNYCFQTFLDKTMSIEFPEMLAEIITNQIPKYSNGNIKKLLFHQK
Experimental: Compounds of the invention were evaluated for binding to the steroid receptor by a fluorescence polarization competitive binding assay. Detailed descriptions for preparation of recombinant glucocorticoid receptor (GR) complex used in the assay is described in U.S. Patent Application Publication No. US 2003/0017503, filed May 20, 2002, and incorporated herein by reference in its entirety. Preparation of the tetramethylrhodamine (TAMRA)-labeled dexamethasone probe was accomplished using a standard literature procedure (M. Pons et al., J. Steroid Biochem., 1985, 22, pp. 267-273).
This assay uses fluorescence polarization (FP) to quantitate the ability of test compounds to compete with tetramethylrhodamine (TAMRA)-labeled dexamethasone for binding to a human glucocorticoid receptor (GR) complex prepared from an insect expression system. The assay buffer was: 10 mM TES, 50 mM KCl, 20 mM Na2MoO4.2H2O, 1.5 mM EDTA, 0.04% w/v CHAPS, 10% v/v glycerol, 1 mM dithiothreitol, pH 7.4. Test compounds were dissolved to 1 mM in neat DMSO and then further diluted to 10× assay concentration in assay buffer supplemented with 10% v/v DMSO. Test compounds were serially diluted at 10× assay concentrations in 10% DMSO-containing buffer in 96-well polypropylene plates. Binding reaction mixtures were prepared in 96-well black Dynex microtiter plates by sequential addition of the following assay components to each well: 15 μL of 10× test compound solution, 85 μL of GR-containing baculovirus lysate diluted 1:170 in assay buffer, and 50 μL of 15 nM TAMRA-labeled dexamethasone. Positive controls were reaction mixtures containing no test compound; negative controls (blanks) were reaction mixtures containing 0.7 μM to 2 μM dexamethasone. The binding reactions were incubated for 1 hour at room temperature and then read for fluorescence polarization in the LJL Analyst set to 550 nm excitation and 580 nm emission, with the Rhodamine 561 dichroic mirror installed. IC50 values were determined by iterative non-linear curve fitting of the FP signal data to a 4-parameter logistic equation.

| Compound | IC50 |
| --- | --- |
| Cc1cc(C)c(S(=O)(=O)N(C)[C@@H](C)Cn2cc(C#N)c3cccc(F)c32)c(N)c1 [2-Amino-N—[(S)-2-(3-cyano-7-fluoroindol-1-yl)-1-methylethyl]-4,6,N-trimethylbenzenesulfonamide] | ≤ 100 nM |
| Cc1cc(C)c(S(=O)(=O)N[C@@H](C)Cn2cc(C#N)c3ccccc32)c(N)c1 [2-Amino-N—[(S)-2-(3-cyanoindol-1-yl)-1-methylethyl]-4,6-dimethylbenzenesulfonamide] | ≤ 100 nM |
| Cc1cc(C)c(S(=O)(=O)N[C@@H](C)Cn2cc(CC#N)c3cccc(F)c32)c(N)c1 [2-Amino-N—[(S)-2-(3-cyanomethyl-7-fluoroindol-1-yl)-1-methylethyl]-4,6-dimethylbenzenesulfonamide] | ≤ 100 nM |
| Cc1cc(C)c(S(=O)(=O)N[C@@H](C)Cn2cc(CC#N)c3ccccc32)c(N)c1 [2-Amino-N—[(S)-2-(3-cyanomethylindol-1-yl)-1-methylethyl]-4,6-dimethylbenzenesulfonamide] | ≤ 100 nM |
| Cc1cc(C)c(S(=O)(=O)N[C@@H](C)Cn2cc(C)c3cccc(F)c32)c(N)c1 [2-Amino-N—[(S)-2-(7-fluoro-3-methylindol-1-yl)-1-methylethyl]-4,6-dimethylbenzenesulfonamide] | ≤ 100 nM |
| Cc1cc(C)c(S(=O)(=O)NC(Cn2ccc3ccccc32)C(C)(C)C)c(C)c1 (stereo not drawn) [N-(1-Indol-1-ylmethyl-2,2-dimethylpropyl)-2,4,6-trimethylbenzenesulfonamide] | ≤ 100 nM |
| Cc1cc(C)c(S(=O)(=O)NC(Cn2ccc3ccccc32)C(C)C)c(C)c1 (stereo not drawn) [N-(1-Indol-1-ylmethyl-2-methylpropyl)-2,4,6-trimethylbenzenesulfonamide] | ≤ 100 nM |
| Cc1cc(C)c(S(=O)(=O)NC(CN2CCCc3ccccc32)C(C)C)c(C)c1 (stereo not drawn) [N-[1-(3,4-Dihydro-2H-quinolin-1-ylmethyl)-2-methylpropyl]-2,4,6-trimethylbenzenesulfonamide] | ≤ 100 nM |
| CC[C@@H](Cn1cc(Br)c2cccnc21)NS(=O)(=O)c1c(C)cc(C)cc1C [N—[(S)-1-(3-Bromopyrrolo[2,3-b]pyridin-1-ylmethyl)propyl]-2,4,6-trimethylbenzenesulfonamide] | ≤ 100 nM |
| CC[C@@H](Cn1c(C)c(C#N)c2ccccc21)NS(=O)(=O)c1c(C)cc(C)cc1C [N—[(S)-1-(3-Cyano-2-methylindol-1-ylmethyl)propyl]-2,4,6-trimethylbenzenesulfonamide] | ≤ 100 nM |
| CC[C@@H](Cn1c(C)cc2cc(Cl)ccc21)NS(=O)(=O)c1c(C)cc(C)cc1C [N—[(S)-1-(5-Chloro-2-methylindol-1-ylmethyl)propyl]-2,4,6-trimethylbenzenesulfonamide] | ≤ 100 nM |
| CC[C@@H](CN1CCCc2cc(Br)ccc21)NS(=O)(=O)c1c(C)cc(C)cc1C [N—[(S)-1-(6-Bromo-3,4-dihydro-2H-quinolin-1-ylmethyl)propyl]-2,4,6-trimethylbenzenesulfonamide] | ≤ 100 nM |
| CC[C@@H](CN1CCCc2cc(C#N)ccc21)NS(=O)(=O)c1c(C)cc(C)cc1C [N—[(S)-1-(6-Cyano-3,4-dihydro-2H-quinolin-1-ylmethyl)propyl]-2,4,6-trimethylbenzenesulfonamide] | ≤ 100 nM |

Other lines, results leading:

| IC50 | Compound |
| --- | --- |
| ≤ 100 nM | Cc1cc(C)c(S(=O)(=O)N[C@@H](C)Cn2cc(CC#N)c3cc(F)ccc32)c(N)c1 [2-Amino-N—[(S)-2-(3-cyanomethyl-5-fluoroindol-1-yl)-1-methylethyl]-4,6-dimethylbenzenesulfonamide] |
| ≤ 100 nM | CC[C@@H](Cn1cc(C)c2ccccc21)NS(=O)(=O)c1c(C)cc(C)cc1Br [2-Bromo-4,6-dimethyl-N—[(S)-1-(3-methylindol-1-ylmethyl)propyl]benzenesulfonamide] |
| ≤ 100 nM | CC[C@@H](Cn1cc(C#N)c2cc(F)ccc21)NS(=O)(=O)c1c(Cl)cc(-c2ccc(N(C)C)cc2)cc1Cl [3,5-Dichloro-4′-dimethylaminobiphenyl-4-sulfonic acid [(S)-1-(3-cyano-5-fluoroindol-1-ylmethyl)propyl]amide] |
| ≤ 100 nM | CC[C@@H](Cn1cc(C#N)c2cc(F)ccc21)NS(=O)(=O)c1c(Cl)cc(Br)cc1Cl [4-Bromo-2,6-dichloro-N—[(S)-1-(3-cyano-5-fluoroindol-1-ylmethyl)propyl]benzenesulfonamide] |
| ≤ 100 nM | CC[C@@H](Cn1cc(C#N)c2cc(F)ccc21)NS(=O)(=O)c1c(C)cc(C)cc1C [N—[(S)-1-(3-Cyano-5-fluoroindol-1-ylmethyl)propyl]-2,4,6-trimethylbenzenesulfonamide] |
| ≤ 100 nM | CC[C@@H](Cn1cc(C#N)c2ccccc21)NS(=O)(=O)c1c(C)cc(C)cc1C [N—[(S)-1-(3-Cyanoindol-1-ylmethyl)propyl]-2,4,6-trimethylbenzenesulfonamide] |
| ≤ 100 nM | CC[C@@H](Cn1cc(CC#N)c2ccccc21)NS(=O)(=O)c1c(C)cc(C)cc1C [N—[(S)-1-(3-Cyanomethylindol-1-ylmethyl)propyl]-2,4,6-trimethylbenzenesulfonamide] |
| ≤ 100 nM | CC[C@@H](Cn1cc(C=O)c2cc(F)ccc21)NS(=O)(=O)c1c(C)cc(C)cc1C [N—[(S)-1-(5-Fluoro-3-formylindol-1-ylmethyl)propyl]-2,4,6-trimethylbenzenesulfonamide] |
